Each structure is given as a SMILES string.

The experiment deals with T1, Nucleotide-binding oligomerization domain-containing protein 1 (Homo sapiens, UniProt Q9Y239).
T1 sequence (Q9Y239 whole entry): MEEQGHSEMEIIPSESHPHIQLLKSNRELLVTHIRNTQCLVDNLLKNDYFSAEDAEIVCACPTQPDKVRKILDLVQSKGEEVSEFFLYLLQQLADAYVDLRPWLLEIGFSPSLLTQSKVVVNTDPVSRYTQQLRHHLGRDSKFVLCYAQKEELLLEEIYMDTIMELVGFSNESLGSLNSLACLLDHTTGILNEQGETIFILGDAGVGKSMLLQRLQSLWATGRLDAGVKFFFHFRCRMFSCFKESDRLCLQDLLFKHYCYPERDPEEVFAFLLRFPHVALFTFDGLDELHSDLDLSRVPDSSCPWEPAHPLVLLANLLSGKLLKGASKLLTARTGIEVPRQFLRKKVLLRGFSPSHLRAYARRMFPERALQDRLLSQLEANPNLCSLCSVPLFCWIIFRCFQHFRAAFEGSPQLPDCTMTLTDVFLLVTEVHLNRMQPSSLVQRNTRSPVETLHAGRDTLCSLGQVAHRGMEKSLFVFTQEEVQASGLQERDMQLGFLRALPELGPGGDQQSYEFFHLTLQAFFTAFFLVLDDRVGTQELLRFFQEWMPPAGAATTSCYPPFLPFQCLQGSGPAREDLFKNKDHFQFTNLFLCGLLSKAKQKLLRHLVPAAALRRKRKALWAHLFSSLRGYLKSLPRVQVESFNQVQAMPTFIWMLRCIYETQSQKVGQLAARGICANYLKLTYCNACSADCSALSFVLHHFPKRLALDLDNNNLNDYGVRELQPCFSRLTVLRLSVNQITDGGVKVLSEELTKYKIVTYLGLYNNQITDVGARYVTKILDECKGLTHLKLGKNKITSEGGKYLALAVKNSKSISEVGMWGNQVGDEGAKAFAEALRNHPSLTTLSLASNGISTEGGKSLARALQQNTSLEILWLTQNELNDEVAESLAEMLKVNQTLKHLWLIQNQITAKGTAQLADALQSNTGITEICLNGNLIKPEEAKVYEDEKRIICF
The experiment can be described thus: NOD1 signaling inhibitors, primary screen, cell-based, luminescence, uHTS (AID 1578).
What is called EC50 is the concentration giving half of the maximal effect. Read a low EC50 as an effect from little substance. On to `C=CCN1C(=O)C(=NNC(=S)Nc2cccc(C)c2)c2ccccc21` [1-(3-methylphenyl)-3-[(Z)-(2-oxidanylidene-1-prop-2-enyl-indol-3-ylidene)amino]thiourea], for which the EC50 was found to be 1.09 µM.

`Cc1cc(N=NCc2ccccc2[N+](=O)[O-])nc(-n2nc(C)cc2C)n1` [SMR000426946] gave an EC50 of 6.21 µM.

`CN1C(=O)C(=NNC(=S)Nc2ccccc2F)c2cc(S(=O)(=O)N3CCOCC3)ccc21` [SMR000314843] came in with an EC50 of over 20 µM. Turning to `COc1cc(CN=Nc2nc3c(c(=O)n(C)c(=O)n3C)n2Cc2ccccc2)ccc1OC(=O)c1ccco1` [[4-[[(7-benzyl-1,3-dimethyl-2,6-dioxopurin-8-yl)hydrazinylidene]methyl]-2-methoxyphenyl] furan-2-carboxylate], the EC50 amounted to 5.22 µM. Next, `Cc1ccc(C)c(SCC(=O)OCC(=O)C(C#N)c2nc3ccccc3[nH]2)c1` (stereo not given) [MLS000392255]: over 20 µM; `CCCCCCC1=Cc2c/c(=C3/NN=C(c4ccccc4OC)O3)c(=O)oc2=CC1=O` [6-Hexyl-7-hydroxy-3-[5-(2-methoxy-phenyl)-[1,3,4]oxadiazol-2-yl]-chromen-2-one]: 6.54 µM; `Oc1c(Br)cc(Br)cc1CN=Nc1ccc(Cl)nn1` [MLS001171109]: over 20 µM. In the case of `CCOC(=O)c1sc(N2C(=O)C(=O)C(C(=O)c3ccco3)C2c2cccc([N+](=O)[O-])c2)nc1C` (stereo not given) [MLS001082998], the EC50 is over 20 µM. Next, `CCCOC1=CC(=O)C(C=NNC(=S)Nc2ccccc2[N+](=O)[O-])C=C1` (stereo not given) [1-(2-nitrophenyl)-3-[[(E)-(6-oxo-4-propoxy-1-cyclohexa-2,4-dienylidene)methyl]amino]thiourea]: 11.9 µM. Next, `Cc1cc(SCC(=O)OCC(=O)C(C#N)c2nc3ccccc3[nH]2)c(C)cc1Br` (stereo not given): over 20 µM; `C=CCN1C(=O)C(=NNC(=S)Nc2cccc(OC)c2)c2ccccc21` [SMR000132469]: over 20 µM; `O=C1C(=O)N(c2nccs2)C(c2ccccc2)C1C(=O)c1ccc2c(c1)OCCO2` (stereo not given): 11.5 µM. Compound `Cc1cc(CN=Nc2nc(N)ncc2[N+](=O)[O-])c(C)n1-c1ccccc1F` [MLS000392273] returned a concentration giving a half-maximal response (EC50) of 4.64 µM. Compound `CCOc1ccc(-c2csc(/C(C#N)=C/C3C=CC(=O)C([N+](=O)[O-])=C3)n2)cc1` (stereo not given) [SMR000237723] gave an EC50 of 1.52 µM.

In turn, `Cc1cc(CN=Nc2ncnc(N)c2[N+](=O)[O-])c(C)n1-c1ccccc1` returned an EC50 of 4.14 µM.

In turn, `Oc1cccc(CN=Nc2ccc(Cl)nn2)c1O` came in with an EC50 of over 20 µM.

Regarding `Cc1ccc(O)c(/N=C/C2=CC(Cc3ccccc3)C=C([N+](=O)[O-])C2=O)c1` (stereo not given) [(6E)-6-[[(5-methyl-2-oxidanyl-phenyl)amino]methylidene]-2-nitro-4-(phenylmethyl)cyclohexa-2,4-dien-1-one], the EC50 was found to be 6.21 µM. Next, `CCCCCCC1=Cc2c/c(=C3/NN/C(=C4/C=CC=CC4=O)O3)c(=O)oc2=CC1=O` [(3E)-6-hexyl-3-[(5E)-5-(6-oxocyclohexa-2,4-dien-1-ylidene)-1,3,4-oxadiazolidin-2-ylidene]chromene-2,7-dione]: 4.51 µM; `COc1ccc(NS(=O)(=O)c2ccc(N=NC(C)c3ccncc3)c([N+](=O)[O-])c2)cc1` (stereo not given) [MLS000393523]: 4.33 µM. In the case of `O=C1C([N+](=O)[O-])=CC(Cl)=CC1CN=Nc1ccccn1` (stereo not given) [MLS000539830] it was 9.12 µM.
